These results are taken from patent US12492182B2, “Hydroxytriazine compounds and pharmaceutical use thereof” (Japan Tobacco Inc., priority 2015, dated 2025).

Structures are written as SMILES. Like-named read-outs stand apart in the source and are kept apart here.

For one assay, the target named is T1, human mPGES-1 (Homo sapiens, UniProt O14684).
T1 construct: made in house; host or cells: Chinese hamster ovary-derived cells (FreeStyle CHO-S), transient transfection of pcDNA3.1(+)/human mPGES-1; microsome fraction
T1 sequence (O14684 1-152): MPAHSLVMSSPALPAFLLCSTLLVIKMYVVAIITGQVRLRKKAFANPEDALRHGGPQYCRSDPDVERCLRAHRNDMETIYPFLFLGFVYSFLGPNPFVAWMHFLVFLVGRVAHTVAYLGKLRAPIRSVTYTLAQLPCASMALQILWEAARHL
The assay can be described thus: Evaluation of human mPGES-1 enzyme inhibitory activity (HTRF measurement of PGE2). It is filed as biochemical. The following applies: IC50 value; microsome fraction of CHO-S cells expressing human mPGES-1, PGH2 substrate, PGE2 by HTRF; read-out: humans mPGES-1 enzyme inhibitory activity. The method, then: Experimental Example 1: Evaluation of Human mPGES-1 Enzyme Inhibitory Activity
The human mPGES-1 enzyme inhibitory activity of a test article was evaluated according to the report of Xu et al. (XU, D et al. MF63 [2-(6-chloro-1H-phenanthro[9,10-d]imidazol-2-yl)-isophthalonitrile], a selective microsomal prostaglandin E synthase-1 inhibitor relieves pyresis and pain in preclinical models of inflammation. J Pharmacol Exp Ther. September 2008, Vol. 326, No. 3, pages 754-763). The amount of PGE2 produced by human mPGES-1 in the presence of a test article was measured by the HTRF (homogeneous time resolved fluorescence) method, and the human mPGES-1 enzyme inhibitory activity of the test article was determined.
1) Preparation of Human mPGES-1 Expressing Cell Microsome Fraction
A DNA fragment containing human mPGES-1, which is added with a BamHI recognition cleavage sequence just before the translation initiation codon and an EcoRI recognition cleavage sequence just after the translation termination codon, was amplified by the PCR (Polymerase Chain Reaction) method using a human mPGES-1 expression plasmid DNA (pME-18S/iPGES-1) prepared in-house as a template. The purified DNA fragment was digested with BamHI and EcoRI, and ligated to pcDNA3.1(+) (Invitrogen, model number V790-20), similarly_digested with BamHI and EcoRI, by using a DNA Ligation kit ver. 2.1 (Takara Bio, model number 6022). The human mPGES-1 expression plasmid DNA was isolated from Escherichia coli DH5a (TOYOBO, model number DNA-903) transformed with the obtained ligation product. The base sequence of human mPGES-1 cloned to a vector was determined by the Dye Terminator method using BigDye Terminator v3.1 Cycle Sequencing Kit (Applied Biosystems, #4337455). The determined sequence was identical with the sequence of the protein translational region of human mPGES-1 (Accession number NM 004878) registered in the NCBI Reference Database.
Human mPGES-1 expression plasmid DNA was transfected into Chinese hamster ovary-derived cells (FreeStyle CHO-S Cell, Invitrogen, #R^800-07) by using a transgene reagent (FreeStyle MAX Reagent (Invitrogen, #16447-100)), and cultured with shaking (8% CO2, 37° C.) in a medium containing 8 mmol/L L-glutamine (GIBCO FreeStyle CHO Expression Medium, Invitrogen, #12651-022) for 48 hr.
The CHO-S cells were suspended in Homogenate Buffer (100 mmol/L potassium phosphate (pH 7.4), 250 mmol/L Sucrose, 100 mmol/L EDTA, complete EDTA free (Roche, #1873580)). Using an ultrasonic disruptor UD-201 (Tomy Seiko), the suspended cells were disrupted at output:3, duty cycle:50 for 30 seconds. The precipitate was removed by centrifugation (1,000×g, 5 min, 4° C.), and the supernatant was centrifuged (5,000×g, 10 min, 4° C.). The supernatant was further centrifuged (105,000×g, 60 min, 4° C.). The obtained precipitate was suspended in Resuspension Buffer (100 mmol/L potassium phosphate (pH 7.4), 250 mmol/L sucrose, 100 mmol/L EDTA, 10% glycerol) to give a microsome fraction.
The protein concentration of the microsome fraction was measured by the Bradford method (Protein Assay Kit, Bio-Rad). The microsome fraction was rapidly frozen in liquid nitrogen and preserved at −80° C. Human mPGES-1 in the microsome fraction was detected by Western Blot using rabbit anti-mPGES-1 polyclonal antibody (ThermoFisher Scientific, #PA1-10264).
2) Evaluation of Human mPGES-1 Enzyme Inhibitory Activity
A test article solution diluted with 0.1 mol/L potassium phosphate, pH 7.4 (hereinafter to be referred to as KPB) or DMSO (Nacalai Tesque, #13407-45) was added at 5 μL/well to 96 well V-bottom plate (Corning, #3363). The final DMSO concentration during the reaction was set to 2%(v/v). Furthermore, a microsome fraction of CHO-S cells expressing human mPGES-1, which was diluted with reduced GSH (12.5 mmol/L KPB solution, SIGMA, #G6529-25G) such that the protein concentration was 5 μg/mL, was added at 20 μL/well. […]
On the technique in general: TR-FRET usually uses a lanthanide donor and a delayed reading to cut background.

A further assay relates to A549 cell. As to the kind of experiment: Evaluation of PGE2 production inhibitory action using A549 cell (IL-1β stimulated). It is filed as cell-based, human. On the procedure:
Experimental Example 2: Evaluation of PGE2 Production Inhibitory Action Using A549 Cell
A549 cell (Japan Health Sciences Foundation Research Resources Bank), which is cell line derived from humans lung cancer, was suspended in assay medium (Ham's F-12K (Wako, #080-08565) containing 2% FBS (Hyclone Laboratories, #SH30910.03), 100 units/mL penicillin and 100 μg/mL streptomycin (Invitrogen, #15140-122)), the suspension was added at 2.5×10^4 cells/100 μL/well to 96 well flat-bottom plate (Corning, #353072), and the plate was left standing for 20 hr in a CO2 incubator set at 37° C. The test article was serially diluted with DMSO (Nacalai Tesque, #13407-45), and then 20-fold diluted with the assay medium to prepare a test article solution having a ten-fold concentration of the final concentration. The final DMSO concentration during the reaction was set to 0.5% (v/v). The medium was removed from the plate in which the cell was added, new assay medium was added at 160 μL/well to the plate, and the plate was left standing for 10 min in a CO2 incubator. Then, the test article solution was added at 20 μL/well to the plate, and the plate was left standing for 30 min in a CO2 incubator. Next, recombinant humans IL-1β (R&D Systems, #201-LB) as a stimulant to enhance PGE2 production due to increase of mPGES-1 mRNA expression was added at 20 μL/well (the final concentration was 1 ng/mL) to the plate, and the plate was left standing for 18 hr in a CO2 incubator. The supernatant was collected at 180 μL/well, and the PGE2 concentration was measured using Prostaglandin E2 assay (CISbio Bioassays, #62P2APEC) according to the manual. As the reference standard for analytical curve, PGE2 (Cayman Chemical, #14010) was used. Using EnVision 2104 (Perkin Elmer), the time-resolved fluorescence at 620 nm and 665 nm relative to the excitation light at 337 nm was measured. PGE2 concentration was extrapolated from the PGE2 analytical curve. Average of the PGE2 concentrations of the respectively-treated wells was used as the data.
The PGE2 production inhibitory activity (%) of the test article was calculated according to the following Formula 3. PGE2 production inhibitory activity(%)=(PGE2A−PGE2X)/(PGE2A−PGE2B)×100 [Formula 3] • PGE2A: PGE2 concentration of vehicle-treated well • PGE2B: PGE2 concentration of blank well (no addition of recombinant humans IL-1B) • PGE2X: PGE2 concentration of test article-treated well

Setting [1] is: Homo sapiens, A549, 18 h, IC50 value, A549 cell, recombinant IL-1β 1 ng/mL, 18 hr, PGE2 in supernatant, read-out: cell PGE2 production inhibitory activity.
[2] abbreviates: Homo sapiens, A549, A549 cell, recombinant human IL-1β stimulation, read-out: cell PGE2 production inhibitory activity (IC50 value).
[3] abbreviates: A549 cell, recombinant human IL-1β stimulation, read-out: cell PGE2 production inhibitory activity (IC50 value).

Consider `COc1ccc(-c2nc(O)nc(-c3cc(CNC(=O)C4(C(F)(F)F)CCCC4)ccc3Cl)n2)cn1` [Example 29], for which the IC50 on human mPGES-1 is 0.8 nM; with A549 cell (setting [1]), 69 nM.
Regarding `CC(C)c1cccc(-c2nc(O)nc(-c3cc(CNC(=O)C4(C(F)F)CCCC4)ccc3Cl)n2)c1` [Example 96], the figures for the IC50 on human mPGES-1 and in the assay with A549 cell (setting [2]) were 0.8 nM and 61 nM, respectively.
Take `CC(C)c1cccc(-c2nc(O)nc(-c3cc(CNC(=O)C4(C)CCCCC4)ccc3Cl)n2)c1` [Example 16]: the IC50 on human mPGES-1 was determined as 0.4 nM; in the assay with A549 cell (setting [1]) it was 34 nM.
For the compound `CC(C)c1cccc(-c2nc(O)nc(-c3cc(CNC(=O)C(C)(C)C(F)F)ccc3Cl)n2)c1` [Example 77], the IC50 at human mPGES-1 was 0.8 nM; with A549 cell (setting [2]), 44 nM.
Take `COC1(C(=O)NCc2ccc(Cl)c(-c3nc(O)nc(-c4cccc(C(C)(C)C)c4)n3)c2)CCCC1` [Example 22]: the IC50 at human mPGES-1 is 0.9 nM; with A549 cell (setting [1]), 16 nM.
For the compound `CCCCOc1ccc(-c2nc(O)nc(-c3cc(CNC(=O)C(C)(C)C(F)(F)F)ccc3Cl)n2)cn1` [Example 14], the IC50 on human mPGES-1 stood at 1.2 nM; in the assay on A549 cell (setting [1]), 4.7 nM.
With `CC(C)c1cc(-c2nc(O)nc(-c3cc(CNC(=O)C4(CF)CCCCC4)ccc3Cl)n2)ccc1Cl` [Example 101], the figures for the IC50 on human mPGES-1 and with A549 cell (setting [2]) were 2.1 nM and 7.9 nM, respectively.
On to `CCC[C@H](C)Oc1ccc(-c2nc(O)nc(-c3cc(CNC(=O)C(C)(C)C(F)(F)F)ccc3Cl)n2)cn1` [Example 86], for which the IC50 worked out at 1.8 nM on human mPGES-1 and 2.1 nM in the assay on A549 cell (setting [2]).
As to `COCCCCOc1ccc(-c2nc(O)nc(-c3cc(CNC(=O)C(C)(C)C(F)(F)F)ccc3Cl)n2)cn1` [Example 61], the IC50 came to 0.5 nM on human mPGES-1 and 79 nM with A549 cell (setting [2]).
Turning to `CC(C)c1cc(-c2nc(O)nc(-c3cc(CNC(=O)C4(C(F)F)CCCC4)ccc3Cl)n2)ccc1Cl` [Example 97], the IC50 at human mPGES-1 is 3.8 nM; in the assay with A549 cell (setting [2]), 9 nM.
For `CC(C)c1cccc(-c2nc(O)nc(-c3cc(CNC(=O)C4(CF)CCCC4)ccc3Cl)n2)c1` [Example 92], the IC50 came out at 0.5 nM at human mPGES-1 and 90 nM in the assay on A549 cell (setting [2]).
As to `CCOc1cccc(-c2nc(O)nc(-c3cc(CNC(=O)C(C)(C)C(F)(F)F)ccc3Cl)n2)c1` [Example 9], the IC50 on human mPGES-1 turned out to be 0.7 nM; in the assay with A549 cell (setting [1]), 37 nM.
Turning to `CC(C)c1cccc(-c2nc(O)nc(-c3cc(CNC(=O)C4(C(F)(F)F)CCCC4)ccc3Cl)n2)c1` [Example 52, 1-trifluoromethylcyclopentanecarboxylic acid 4-chloro-3-[4-hydroxy-6-(3-isopropylphenyl)-1,3,5-triazin-2-yl]benzylamide], the values for the IC50 at human mPGES-1 and in the assay on A549 cell (setting [1]) were 1.1 nM and 6 nM, respectively.
Regarding `CCC[C@H](C)Oc1ccc(-c2nc(O)nc(-c3cc(CNC(=O)C(C)(C)OC)ccc3Cl)n2)cn1` [Example 102], the IC50 on human mPGES-1 came to 1.1 nM; in the assay with A549 cell (setting [2]) it was 25 nM.
With `COc1ncc(-c2nc(O)nc(-c3cc(CNC(=O)C4(C(F)(F)F)CCCCC4)ccc3Cl)n2)cc1C(C)C` [Example 62], the IC50 at human mPGES-1 was 1 nM; in the assay on A549 cell (setting [2]) it was 50 nM.
As to `CC(C)(C)c1cccc(-c2nc(O)nc(-c3cc(CNC(=O)C4(CF)CCCCC4)ccc3Cl)n2)c1` [Example 99], the values for the IC50 at human mPGES-1 and with A549 cell (setting [2]) were 1.7 nM and 11 nM, respectively.
Regarding `CCCc1cc(-c2nc(O)nc(-c3cc(CNC(=O)C4(C(F)(F)F)CCCCC4)ccc3Cl)n2)cnc1OCC` [Example 72], the IC50 was 5.3 nM on human mPGES-1 and 5.9 nM in the assay on A549 cell (setting [2]).
For the compound `CC1(c2cccc(-c3nc(O)nc(-c4cc(CNC(=O)C(C)(C)C(F)(F)F)ccc4Cl)n3)c2)CC1` [Example 49, N-(4-chloro-3-{4-hydroxy-6-[3-(1-methylcyclopropyl)phenyl]-1,3,5-triazin-2-yl}benzyl)-3,3,3-trifluoro-2,2-dimethylpropionamide], the IC50 stood at 0.5 nM at human mPGES-1 and 7.3 nM in the assay with A549 cell (setting [1]).
As for `CCC(OC)(C(=O)NCc1ccc(Cl)c(-c2nc(O)nc(-c3cccc(C4(C)CC4)c3)n2)c1)C(F)(F)F` (stereo not shown) [Example 138], the IC50 came to 1.5 nM on human mPGES-1 and 8.4 nM in the assay with A549 cell (setting [3]).
`CCCOc1cc(C)cc(-c2nc(O)nc(-c3cc(CNC(=O)C(C)(C)C(F)(F)F)ccc3Cl)n2)c1` [Example 10]: the IC50 on human mPGES-1 came to 1.7 nM; in the assay on A549 cell (setting [1]) it was 49 nM.
The corresponding values for `CC(C)c1cccc(-c2nc(O)nc(-c3cc(CNC(=O)C4(F)CC4)ccc3Cl)n2)c1` [Example 38] are 2.9 nM and 130 nM.
Turning to `CCC[C@H](C)Oc1ccc(-c2nc(O)nc(-c3cc(CNC(=O)C4(CF)CCCCC4)ccc3Cl)n2)cn1` [Example 106], the results for the IC50 at human mPGES-1 and in the assay with A549 cell (setting [2]) were 3.6 nM and 5 nM, respectively.
Regarding `CCC(OC)(C(=O)NCc1ccc(Cl)c(-c2nc(O)nc(-c3cccc(C(C)(C)C)c3)n2)c1)C(F)(F)F` (stereo not shown) [Example 135], the IC50 came out at 2 nM on human mPGES-1 and 5.4 nM with A549 cell (setting [3]).
